Data reported in PMC4604124, “In Vitro Characterization of the Pharmacological Properties of the Anti-Cancer Chelator, Bp4eT, and Its Phase I Metabolites” (PLoS ONE, 2015).
pIC50: −log10 of the molar value. Where “and” joins values, the source holds several entries; their conditions need not be identical. Equal values may be shown once.

What was measured:
[1] = system: A549 human lung adenocarcinoma cells; assay: MTT cytotoxicity assay, A549 cells; assay type: cell-based; details: for MTT, relative to control (0 = 100) / pIC50: 2 000 b/j, sheet E-Bp4eS; for pIC50: MTT
Description: For cytotoxicity experiments, cancer cells were seeded at a density of 5,000 (MCF-7), 10,000 (HL-60) or 2,000 cells/well (HCT116 and A549) in 96-well plates (TPP) for 24 h/37°C prior to the addition of examined agents. The non-cancerous cells, 3T3 and H9c2 cells, were cultured for 24 h/37°C in 96-well plates at a density of 10,000 cells/well, the medium was then changed to serum- and pyruvate-free DMEM (Sigma-Aldrich) and incubated with the cells for another 24 h/37°C. The cytotoxic effects of Bp4eT and its metabolites were studied at different concentrations after a 72 h/37°C incubation. In order to aid the dissolution of the lipophilic ligands, 0.1% dimethyl sulfoxide (v/v) (DMSO; Sigma-Aldrich) was present in the culture medium of all groups. At this concentration, DMSO had no effect on cellular proliferation or viability.
The viability of cells were determined using an MTT assay (Sigma-Aldrich) according to previously established methods. The optical density of soluble MTT was measured at λ = 570 nm, subtracting the λ = 690 nm background using a Tecan Infinite 200M plate reader (Tecan Group, Männedorf, Switzerland). The viability or proliferation of experimental groups was expressed as a percentage of the untreated controls (100%).
SigmaStat for Windows 3.5 (Systat Software, San Jose, CA, USA) statistical software package was utilized to analyze results. The data are expressed as the mean ± SD of a given number of experiments. Statistical significance was determined using a one-way ANOVA with a Bonferroni post-hoc test or Student’s t-test. The results were considered to be statistically significant when p < 0.05. The IC50 values were calculated using CalcuSyn 2.0 software (Biosoft, Cambridge, UK). Cell cycle analysis was evaluated using MultiCycle AV Software (Phoenix Flow Systems, San Diego, CA, USA).

[2] = system: caspase 8; assay: Caspase activity, luminescent kit, caspase 8; assay type: cell-based, human; details: for kaspáza 8, raw signal / kaspáza 8, signal / viabilita: individual experiments by date; for kaspáza 8, raw signal, průměry / kaspáza 8, % kontroly / kaspáza 8, signal / viabilita, průměry: mean; for kaspáza 8, % kontroly / kaspáza 8, signal / viabilita / kaspáza 8, signal / viabilita, průměry: normalised to viability
Description: (§1) To assess the effect of the compounds on caspase activity, MCF-7 cells were incubated with 100 nM Bp4eT or its metabolites for 3, 24 or 72 h/37°C in 96-well plates, as described above. The cells were then lysed by adding 100 μL of cold lysis buffer (100 mM HEPES, 10 mM CHAPS, 10 mM D-L-dithiothreitol, pH 7.4) to 100 μL of medium in each well. Lysates were immediately frozen at -80°C. Thawed lysates were used to assess caspase activity using luminescent kits for caspases 3/7, 8 and 9 (Promega, Madison, WI, USA). The luminescence was measured using the Tecan Infinite 200M plate reader. Caspase activity in the experimental groups was corrected according to the cellular viability of each group and expressed as a percentage of activity of the untreated control (100%).

[3] = system: caspase 9; assay: Caspase activity, luminescent kit, caspase 9; assay type: cell-based, human; details: for kaspáza 9, raw signal / kaspáza 9, signal / viabilita: individual experiments by date; for kaspáza 9, raw signal, průměry / kaspáza 9, % kontroly / kaspáza 9, signal / viabilita, průměry: mean; for kaspáza 9, % kontroly / kaspáza 9, signal / viabilita / kaspáza 9, signal / viabilita, průměry: normalised to viability
Description: as §1

CCNC(=O)NN=C(c1ccccc1)c1ccccn1 [E-Bp4eS, 2-benzoylpyridine 4-ethylsemicarbazone]
MTT, relative to control (0 = 100) ([1]; A549, 3 μM, single experiment (date)): 94.6678 and 89.857 and 93.9888 and 97.9391
MTT, relative to control (0 = 100) ([1]; A549, 10 μM, průměr (mean)): 92.21
MTT, relative to control (0 = 100) ([1]; A549, 10 μM, single experiment (date)): 87.4036 and 92.1017 and 93.2476 and 93.9742 and 94.3384
MTT, relative to control (0 = 100) ([1]; A549, 30 μM, průměr (mean)): 90.64
MTT, relative to control (0 = 100) ([1]; A549, 30 μM, single experiment (date)): 90.1965 and 95.4707 and 85.9691 and 88.5685 and 92.9924
MTT, relative to control (0 = 100) ([1]; A549, 100 μM, průměr (mean)): 73.00
MTT, relative to control (0 = 100) ([1]; A549, 100 μM, single experiment (date)): 74.3256 and 77.7533 and 70.4536 and 74.7606 and 67.6889
MTT, relative to control (0 = 100) ([1]; A549, 300 μM, průměr (mean)): 38.58
MTT, relative to control (0 = 100) ([1]; A549, 300 μM, single experiment (date)): 29.8381 and 26.5697 and 49.6192 and 42.8896 and 44.0078
MTT, relative to control (0 = 100) ([1]; A549, 1000 μM, průměr (mean)): 20.68
MTT, relative to control (0 = 100) ([1]; A549, 1000 μM, single experiment (date)): 19.2379 and 16.653 and 18.6303 and 21.7843 and 27.0728
pIC50 ([1]; A549, single experiment (date)): 3.63 and 3.62 and 3.59 and 3.54
Therapeutic index, IC50 non-cancerous cells / IC50 neoplastic cells ([1]; H9c2/A549): 3.6
pIC50 ([1]; Homo sapiens, A549, A549, single experiment (date)): 3.66
kaspáza 8, raw signal ([2]; 3 hodiny): 1819 and 1041 and 1191.5 and 952.5
kaspáza 8, raw signal, průměry ([2]; 3 hodiny): 1251
kaspáza 8, % kontroly ([2]; 3 hodiny): 93.96 % kontroly
kaspáza 8, signal / viabilita ([2]; 3 hodiny): 18.5259 and 10.6022 and 12.135 and 9.701
kaspáza 8, signal / viabilita, průměry ([2]; 3 hodiny): 12.741
kaspáza 8, raw signal ([2]; 24 hodin): 1530 and 1548 and 1983.5 and 1503
kaspáza 8, raw signal, průměry ([2]; 24 hodin): 1641.12
kaspáza 8, % kontroly ([2]; 24 hodin): 104.70 % kontroly
kaspáza 8, signal / viabilita ([2]; 24 hodin): 15.3819 and 15.5629 and 19.9412 and 15.1105
kaspáza 8, signal / viabilita, průměry ([2]; 24 hodin): 16.4991
kaspáza 8, raw signal ([2]; 72 hodin): 6786.5 and 6488.5 and 6545 and 6983
kaspáza 8, raw signal, průměry ([2]; 72 hodin): 6700.75
kaspáza 8, % kontroly ([2]; 72 hodin): 98.51 % kontroly
kaspáza 8, signal / viabilita ([2]; 72 hodin): 69.3845 and 66.3378 and 66.9154 and 71.3935
kaspáza 8, signal / viabilita, průměry ([2]; 72 hodin): 68.5078
kaspáza 9, raw signal ([3]; 3 hodiny): 5048 and 2733 and 3173 and 2706.5
kaspáza 9, raw signal, průměry ([3]; 3 hodiny): 3415.12
kaspáza 9, % kontroly ([3]; 3 hodiny): 105.55 % kontroly
kaspáza 9, signal / viabilita ([3]; 3 hodiny): 51.4121 and 27.8346 and 32.3159 and 27.5647
kaspáza 9, signal / viabilita, průměry ([3]; 3 hodiny): 34.7818
kaspáza 9, raw signal ([3]; 24 hodin): 3856 and 3865 and 5378.5 and 4257
kaspáza 9, raw signal, průměry ([3]; 24 hodin): 4339.12
kaspáza 9, % kontroly ([3]; 24 hodin): 110.34 % kontroly
kaspáza 9, signal / viabilita ([3]; 24 hodin): 38.7665 and 38.857 and 54.073 and 42.798
kaspáza 9, signal / viabilita, průměry ([3]; 24 hodin): 43.6236
kaspáza 9, raw signal ([3]; 72 hodin): 22791 and 20686 and 21610 and 23932
kaspáza 9, raw signal, průměry ([3]; 72 hodin): 22254.8
kaspáza 9, % kontroly ([3]; 72 hodin): 104.60 % kontroly
kaspáza 9, signal / viabilita ([3]; 72 hodin): 233.013 and 211.492 and 220.939 and 244.678
kaspáza 9, signal / viabilita, průměry ([3]; 72 hodin): 227.53
